biological target: T1, human Syk (GST-Syk) (Homo sapiens, UniProt P43405); assay: Syk tyrosine kinase inhibitory assay; type: biochemical; conditions: in vitro; compounds as yielded by solid phase synthesis, purity about 40 to 90%; read-out: Activity grade (IC50 class)
T1 construct: A cDNA fragment encoding human Syk openreading frame was cloned; made in house; host or cells: Sf21 insect cells (baculovirus, transfer vector pAcG2T)
Procedure, shortened: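 GST-tagged human Syk from baculovirus/Sf21, 0.65 nM final, with 3 μM biotinylated 30-residue activation-loop peptide and 30 μM ATP in Tris pH 8.0/MgCl2 buffer, 0.25% DMSO; 1 h at room temperature. Phosphopeptide captured on streptavidin, detected by europium-labelled anti-phosphotyrosine 4G10 time-resolved fluorescence.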

| SMILES | IC50 [nM] |
| --- | --- |
| COc1ccc(-c2cc3nccn3c(Nc3ccc(Br)cc3C(N)=O)n2)cc1OC [Example 11-97] | < 500 |
| CNC(=O)c1ccccc1Nc1nc(-c2ccc(OC)c(OC)c2)cc2nccn12 [Example 11-99] | < 500 |
| COc1ccc(-c2cc3ncnn3c(Nc3ccc(CCC(=O)O)cc3C(N)=O)n2)cc1OC [Example 11-101] | < 500 |
| COc1ccc(-c2cc3ncnn3c(Nc3ccccc3C(N)=O)n2)cc1OC [Example 11-102] | < 500 |
| COc1ccc(-c2cc3ncnn3c(Nc3ccc4cn[nH]c4c3)n2)cc1OC [Example 11-103] | < 500 |
| COc1ccc(-c2cc3nccn3c(Nc3ccc(CCC(=O)O)cc3C(N)=O)n2)cc1OC [Example 11-104] | < 500 |
| COc1ccc(-c2cc3nccn3c(Nc3ccc(CCCC(=O)O)cc3C(N)=O)n2)cc1OC [Example 11-105] | < 500 |
| COc1ccc(-c2cc3ncnn3c(Nc3ccc(CCCC(=O)O)cc3C(N)=O)n2)cc1OC [Example 11-106] | < 500 |
| COc1ccc(-c2cc3nccn3c(Nc3cc([N+](=O)[O-])ccc3C(N)=O)n2)cc1OC [Example 11-109] | < 500 |
| COc1ccc(Nc2nc(-c3ccc(OC)c(OC)c3)cc3nccn23)cc1NCCN1CCOCC1 [Example 11-111] | 2000 to 10000 |
| COc1ccc(Nc2nc(-c3ccc(OC)c(OC)c3)cc3nccn23)cc1NCCN(C)CCO [Example 11-112] | 500 to 2000 |
| COc1ccc(-c2cc3nccn3c(Nc3ccccc3S(N)(=O)=O)n2)cc1OC [Example 11-113] | < 500 |
| COc1ccc(-c2cc3nccn3c(Nc3ccc(S(=O)(=O)N4CCOCC4)cc3)n2)cc1OC [Example 11-116] | < 500 |
| COc1ccc(-c2cc3nccn3c(Nc3ccc4c(c3)[nH]c(=O)n4C)n2)cc1OC [Example 11-118] | < 500 |
| COc1ccc(-c2cc3nccn3c(Nc3ccccc3S(C)(=O)=O)n2)cc1OC [Example 11-119] | < 500 |
| COc1ccc(-c2cc3nccn3c(Nc3ccccc3C#N)n2)cc1OC [Example 11-121] | 500 to 2000 |
| CNS(=O)(=O)c1ccccc1Nc1nc(-c2ccc(OC)c(OC)c2)cc2nccn12 [Example 11-122] | < 500 |
| COc1ccc(-c2cc3nccn3c(Nc3ccccc3S(=O)(=O)N(C)C)n2)cc1OC [Example 11-123] | < 500 |

Other lines, results leading:

| IC50 [nM] | SMILES |
| --- | --- |
| < 500 | COc1ccc(-c2cc3nccn3c(Nc3ccc(OCCN4CCOCC4)cc3)n2)cc1OC [Example 11-91] |
| < 500 | COc1ccc(Nc2nc(-c3ccc(OC)c(OC)c3)cc3nccn23)cc1O [Example 11-92] |
| < 500 | COc1ccc(Nc2nc(-c3ccc(OC)c(OC)c3)cc3nccn23)c(O)c1 [Example 11-93] |
| 2000 to 10000 | CCCCOc1ccc(Nc2nc(-c3ccc(OC)c(OC)c3)cc3nccn23)cc1 [Example 11-94] |
| < 500 | COc1ccc(-c2cc3nccn3c(Nc3ccc(OC(F)(F)F)cc3)n2)cc1OC [Example 11-95] |
| < 500 | COc1ccc(Nc2nc(-c3ccc(OC)c(OC)c3)cc3nccn23)c(C(N)=O)c1 [Example 11-96] |
| < 500 | COc1ccc(-c2cc3nccn3c(Nc3ccc(OC(C)C)cc3)n2)cc1OC [Example 11-98] |
| < 500 | COc1ccc(Nc2nc(-c3ccc(OC)c(OC)c3)cc3nccn23)cc1F [Example 11-100] |
| < 500 | COc1ccc(-c2cc3nccn3c(Nc3ccc(S(=O)(=O)NC(=N)N)cc3)n2)cc1OC [Example 11-110] |
| < 500 | COc1ccc(-c2cc3nccn3c(Nc3cccc(S(N)(=O)=O)c3)n2)cc1OC [Example 11-114] |
| < 500 | COc1ccc(-c2cc3nccn3c(Nc3ccc(S(=O)(=O)N4CCCC4)cc3)n2)cc1OC [Example 11-115] |
| < 500 | COc1ccc(-c2cc3nccn3c(Nc3ccc4c(c3)n(C)c(=O)n4C)n2)cc1OC [Example 11-117] |
| < 500 | COc1ccc(-c2cc3nccn3c(Nc3cccc(S(C)(=O)=O)c3)n2)cc1OC [Example 11-120] |
| < 500 | COc1ccc(-c2cc3nccn3c(Nc3cccc(N)c3)n2)cc1OC [Example 11-124] |

From US6911443B2 (Bayer Aktiengesellschaft, priority 2000, dated 2005)
